Earlier results as cited in patent publication US8063151B2, “Methods for manufacturing copolymers having 1-methyl-2-methoxyethyl moieties and use of same” (Abbott Laboratories, priority 2006, dated 2011).

Settings: comparison with ethanol

Structure (SMILES): COCC(C)O (stereo not shown) [1-methoxy-2-propanol]
- toxicity compared with other solvents: in a range more similar to ethanol
